Experimental data reported in patent US20230068020A1, “MACROLIDE COMPOUND AND ITS USE OF TREATMENT CHRONIC RESPIRATORY DISEASE” (priority 2020, published 2023).
Converted amounts (≈) assume the structure as drawn.

Experiments:
THP-1 cell = assay: Differentiation of monocyte to macrophage in THP-1 cell line; type: cell-based; settings: in words
Procedure: The THP-1 cell line was purchased from ATCC (American Type Culture Collection, Manassas, Va.). Cells were maintained in growth medium (RPMI-1640) with supplemented with 10% heat inactivated bovine serum, 100× Glutamax medium and 0.05 mM β-Mercaptoethanol at 37° C. under 5% CO2. Compounds were dissolved in 0.1% DMSO. Erythromycin was used as a positive control.
For the assessment of the effect of compounds of the present invention on differentiation of monocyte to macrophage in THP-1 cell line, cells were collected and centrifuged at 900 rpm for 4 minutes. The cell density was adjusted to 2.5×10^5/mL. cell suspension of 400 μL was added to each well of 48-well plate following the plate layout. PMA 1 mg, a compound can induce monocyte differentiation, was dissolved in 10 mL DMSO to form 100 μg/mL solution and aliquote it into 1 mL per vial. 1 mL solution can be further aliquoted into 10 μL per vial and stored the aliquots at −20° C. Make 10-fold dilution of PMA with DMSO and then 500-fold dilution with complete medium. 50 μL solution were then added to each well of 48-well plate following the plate layout. Erythromycin and compounds of examples at stock concentration of 10 mM was serially diluted at 10-fold in DMSO. 50 μL solution was added to each well of 48-well plate following the plate layout. After 96 hrs incubation at 37° C., 5% CO2, the plate was washed with DPBS for three times to remove non-adherent cells for three times. Complete medium 180 μL and alarmar blue 20 μL was added to each well. The fluorescent intensity was read at excitation 530 nm and emission 590 nm using PerkinElmer Victor3 after 3 hours plate incubation.
The differentiation activity of compounds of Examples is compared to that of 100 μM erythromycin and the results are shown in FIG. 1 and Table 3.

[1] = tested on: Acinetobacter baumanii ATCC 17978; assay: Antibacterial activity, agar dilution MIC; type: cell-based; settings: Acinetobacter baumannii, ATCC17978, 20-24 hrs incubation, read-out: minimum inhibitory concentration MIC
Procedure: (§1) The antibacterial activity of Erythromycin and compounds of examples were evaluated by the agar dilution method, following the guidelines of the CLSI. […] Briefly, bacteria were grown overnight in adapted media (MHIIA with 5% of sheep blood for Streptococcus pneumoniae and Haemophilus influenzae, and MHIIA for the other bacteria strains) at 35° C., 5% CO2.
(§2) Cultures were centrifuged at 3000×g for 15 min. Pellets were diluted with 5 mls cold PBS and the OD600nm was adjusted to 10^8 CFU.mL^−1 with a spectrometer. Bacteria were then added to 96-well test plates. Compounds were diluted in DMSO in a 2 fold steps from 20 mg/ml in DMSO in 96 well plated and transferred to the test plate. During the incubation, the plate was maintained at 35° C., 5% CO2.
(§3) The MICs for Erythromycin and compounds of examples were determined after 20-24 hrs incubation.

[2] = tested on: Acinetobacter baumannii ATCC-BAA-1605; assay: Antibacterial activity, agar dilution MIC; type: cell-based; settings: ATCCBAA1605, 20-24 hrs incubation, read-out: minimum inhibitory concentration MIC
Procedure: as §1, §2, §3

[3] = tested on: Streptococcus pneumoniae ATCC 6301; assay: Antibacterial activity, agar dilution MIC; type: cell-based; settings: ATCC6301, 20-24 hrs incubation, read-out: minimum inhibitory concentration MIC
Procedure: as §1, §2, §3

[4] = tested on: Staphylococcus aureus ATCC 29213; assay: Antibacterial activity, agar dilution MIC; type: cell-based; settings: ATCC29213, 20-24 hrs incubation, read-out: minimum inhibitory concentration MIC
Procedure: as §1, §2, §3

[5] = tested on: Streptococcus pneumoniae ATCC 49619; assay: Antibacterial activity, agar dilution MIC; type: cell-based; settings: ATCC49619, 20-24 hrs incubation, read-out: minimum inhibitory concentration MIC
Procedure: as §1, §2, §3

[6] = tested on: Staphylococcus aureus NRS 384; assay: Antibacterial activity, agar dilution MIC; type: cell-based; settings: NRS384, 20-24 hrs incubation, read-out: minimum inhibitory concentration MIC
Procedure: as §1, §2, §3

[7] = tested on: Haemophilus influenzae ATCC 49247; assay: Antibacterial activity, agar dilution MIC; type: cell-based; settings: ATCC49247, 20-24 hrs incubation, read-out: minimum inhibitory concentration MIC
Procedure: as §1, §2, §3

[8] = tested on: Streptococcus pyogenes ATCC BAA-572; assay: Antibacterial activity, agar dilution MIC; type: cell-based; settings: ATCCBAA572, 20-24 hrs incubation, read-out: minimum inhibitory concentration MIC
Procedure: as §1, §2, §3

[9] = tested on: Enterococcus faecalis ATCC 29212; assay: Antibacterial activity, agar dilution MIC; type: cell-based; settings: ATCC29212, 20-24 hrs incubation, read-out: minimum inhibitory concentration MIC
Procedure: as §1, §2, §3

[10] = tested on: Moraxella catarrhalis ATCC 43617; assay: Antibacterial activity, agar dilution MIC; type: cell-based; settings: ATCC43617, 20-24 hrs incubation, read-out: minimum inhibitory concentration MIC
Procedure: as §1, §2, §3

[11] = male, Sprague-Dawley, rat, in vivo, po, 100 mg/kg
Procedure: (§4) In another study, a single intravenous dose of two compounds was given to rats (N=3) at 30 mg/ml dosage following administration through the lateral tail vein in order to obtain the absolute oral bioavailability and clearance parameters. Compounds (10 mg/mL) was dissolved in 30% DMSO for IV injection and suspended in 0.5% CMC-Na for IG respectively.

in vivo = settings: Sprague-Dawley, rat
Procedure: as §4

SMILES: CC[C@H]1OC(=O)[C@H](C)[C@@H](O[C@H]2C[C@@](C)(OC)[C@@H](O)[C@H](C)O2)[C@H](C)[C@@H](O[C@@H]2O[C@H](C)C[C@H](N(C)C)[C@H]2O)[C@](C)(O)C[C@@H](C)C(=O)[C@H](C)[C@@H](O)[C@]1(C)O [Erythromycin, reference compound]
- effect on THP-1 cell differentiation (THP-1 cell): promotional effect on THP-1 cell differentiation in a dose dependent manner
- MIC [1]: 64 µg/mL (≈ 87.2 µM)
- MIC [2]: 16 µg/mL (≈ 21.8 µM)
- MIC [3]: < 0.125 µg/mL
- MIC [4]: 0.5 µg/mL (≈ 0.681 µM)
- MIC [5]: < 0.125 µg/mL
- MIC [6]: 64 µg/mL (≈ 87.2 µM)
- MIC [7]: 16 µg/mL (≈ 21.8 µM)
- MIC [8]: < 0.125 µg/mL
- MIC [9]: 1 µg/mL (≈ 1.36 µM)
- MIC [10]: 2 µg/mL (≈ 2.73 µM)
- F [11]: 21.8%
- clearance (in vivo; iv): 50.2 mL/min/kg
- AUC(0-inf) (in vivo; male, po, 100 mg/kg): 7250 ng·h/mL
- AUC(0-t) (in vivo; male, po, 100 mg/kg): 7240 ng·h/mL
- Cmax (in vivo; male, po, 100 mg/kg): 2530 ng/mL
- Tmax (in vivo; male, po, 100 mg/kg): 2 h
- half-life (in vivo; male, po, 100 mg/kg): 0.93 h
